As a reminder, the Dmax is the largest share of the target that was removed. Read a low Dmax as shallow degradation. What is called DC50 is the concentration at which degradation of the target reaches its halfway point. A high value points to degradation only at high concentration.

Six compounds from patent US20250114345A1, “COMPOUNDS AND COMPOSITIONS AS CBP/P300 DEGRADERS AND USES THEREOF” (Oncopia Therapeutics, Inc. d/b/a/ SK Life Science Labs, priority 2023, published 2025) can be followed below.

One experiment deals with T1, p300 (Homo sapiens, UniProt Q09472).
T1 construct: host or cells: A549 P300 HiBit cells
T1 sequence (Q09472 whole entry): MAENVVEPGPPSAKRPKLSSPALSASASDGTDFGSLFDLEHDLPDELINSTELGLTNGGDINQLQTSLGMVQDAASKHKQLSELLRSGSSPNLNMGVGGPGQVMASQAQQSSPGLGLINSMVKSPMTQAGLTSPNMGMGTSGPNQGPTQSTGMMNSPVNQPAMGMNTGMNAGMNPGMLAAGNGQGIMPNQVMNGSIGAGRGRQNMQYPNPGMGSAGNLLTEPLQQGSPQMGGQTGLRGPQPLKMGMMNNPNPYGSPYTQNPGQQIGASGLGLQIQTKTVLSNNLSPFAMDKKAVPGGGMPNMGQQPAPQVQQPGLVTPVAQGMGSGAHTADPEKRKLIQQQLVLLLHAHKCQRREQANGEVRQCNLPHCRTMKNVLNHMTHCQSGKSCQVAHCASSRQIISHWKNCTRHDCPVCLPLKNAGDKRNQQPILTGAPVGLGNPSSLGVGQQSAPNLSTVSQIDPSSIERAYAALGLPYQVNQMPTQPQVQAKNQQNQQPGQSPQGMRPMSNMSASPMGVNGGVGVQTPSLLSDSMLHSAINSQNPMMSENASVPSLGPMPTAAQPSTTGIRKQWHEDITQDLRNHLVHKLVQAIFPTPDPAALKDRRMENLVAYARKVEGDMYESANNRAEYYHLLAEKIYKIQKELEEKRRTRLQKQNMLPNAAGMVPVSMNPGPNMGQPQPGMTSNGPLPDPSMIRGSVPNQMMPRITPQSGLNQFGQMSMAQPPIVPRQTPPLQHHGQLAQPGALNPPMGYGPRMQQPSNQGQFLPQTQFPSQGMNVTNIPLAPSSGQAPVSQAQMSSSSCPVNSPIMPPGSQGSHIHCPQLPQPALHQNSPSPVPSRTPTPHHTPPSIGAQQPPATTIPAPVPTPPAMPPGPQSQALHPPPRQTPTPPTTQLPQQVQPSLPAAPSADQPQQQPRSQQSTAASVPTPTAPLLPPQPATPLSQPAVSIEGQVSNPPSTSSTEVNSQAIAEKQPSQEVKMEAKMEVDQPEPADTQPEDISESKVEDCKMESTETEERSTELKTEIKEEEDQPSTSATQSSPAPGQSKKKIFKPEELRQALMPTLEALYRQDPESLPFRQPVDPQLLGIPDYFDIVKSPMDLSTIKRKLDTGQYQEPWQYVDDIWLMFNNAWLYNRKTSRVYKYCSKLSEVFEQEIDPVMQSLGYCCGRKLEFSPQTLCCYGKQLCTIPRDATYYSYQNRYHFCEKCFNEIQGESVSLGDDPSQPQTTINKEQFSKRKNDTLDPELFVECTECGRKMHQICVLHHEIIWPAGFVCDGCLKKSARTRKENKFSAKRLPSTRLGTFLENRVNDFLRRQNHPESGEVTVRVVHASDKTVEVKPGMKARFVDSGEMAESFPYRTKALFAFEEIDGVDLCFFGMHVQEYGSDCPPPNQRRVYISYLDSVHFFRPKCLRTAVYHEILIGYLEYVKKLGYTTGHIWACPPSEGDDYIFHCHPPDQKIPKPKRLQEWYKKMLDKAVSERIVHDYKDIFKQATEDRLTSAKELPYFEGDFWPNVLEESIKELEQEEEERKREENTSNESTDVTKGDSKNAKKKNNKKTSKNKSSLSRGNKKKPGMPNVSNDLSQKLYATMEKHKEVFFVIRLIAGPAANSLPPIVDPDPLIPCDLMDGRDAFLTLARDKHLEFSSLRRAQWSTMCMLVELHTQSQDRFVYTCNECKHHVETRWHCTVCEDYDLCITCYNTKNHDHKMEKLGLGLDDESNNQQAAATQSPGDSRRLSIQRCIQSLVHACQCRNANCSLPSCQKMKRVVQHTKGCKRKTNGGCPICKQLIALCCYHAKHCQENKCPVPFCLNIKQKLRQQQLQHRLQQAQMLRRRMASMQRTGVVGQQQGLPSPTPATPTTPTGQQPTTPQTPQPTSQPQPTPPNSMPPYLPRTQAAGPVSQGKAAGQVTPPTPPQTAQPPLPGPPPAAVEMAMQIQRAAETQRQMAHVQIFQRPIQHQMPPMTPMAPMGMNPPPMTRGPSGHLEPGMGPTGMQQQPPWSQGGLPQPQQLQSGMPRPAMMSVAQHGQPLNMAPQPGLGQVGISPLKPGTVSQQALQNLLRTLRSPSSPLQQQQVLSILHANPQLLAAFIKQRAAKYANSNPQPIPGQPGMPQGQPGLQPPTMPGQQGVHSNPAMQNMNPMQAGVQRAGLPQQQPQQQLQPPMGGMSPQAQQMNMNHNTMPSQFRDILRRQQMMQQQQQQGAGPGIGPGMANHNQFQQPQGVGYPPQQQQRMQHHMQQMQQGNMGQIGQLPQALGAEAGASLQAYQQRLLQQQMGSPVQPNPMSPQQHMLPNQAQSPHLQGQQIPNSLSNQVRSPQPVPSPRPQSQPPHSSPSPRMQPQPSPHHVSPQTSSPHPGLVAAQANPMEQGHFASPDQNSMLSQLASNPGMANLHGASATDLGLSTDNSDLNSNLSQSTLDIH
Put plainly: P300 degradation, HiBit technology in A549 P300 HiBit cells (2 h). It is filed as cell-based. The following applies: 2 hrs post treatment; for Dmax: A549, A549 P300 HiBit cells; for DC50: A549 P300 HiBit cells. The procedure, abridged:
(§1)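 A549 HiBiT knock-in cells seeded overnight at 37 °C, 5% CO2 in F-12K with 10% heat-inactivated FBS, then given serial dilutions of compound from 10 mM DMSO stocks. Lytic HiBiT detection reagent added for 10 min at room temperature; luminescence read. Potency and Dmax reported.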
In general terms: The HiBiT peptide binds its large partner to form an active luciferase.

Another experiment addresses T2, CBP (Homo sapiens, UniProt Q92793).
T2 construct: host or cells: A549 CBP HiBit cells
Description: CBP degradation, HiBit technology in A549 CBP HiBit cells (24 h). It is filed as cell-based. The following applies: 24 hrs post treatment. Summed up: as §1

T2 sequence (Q92793 whole entry): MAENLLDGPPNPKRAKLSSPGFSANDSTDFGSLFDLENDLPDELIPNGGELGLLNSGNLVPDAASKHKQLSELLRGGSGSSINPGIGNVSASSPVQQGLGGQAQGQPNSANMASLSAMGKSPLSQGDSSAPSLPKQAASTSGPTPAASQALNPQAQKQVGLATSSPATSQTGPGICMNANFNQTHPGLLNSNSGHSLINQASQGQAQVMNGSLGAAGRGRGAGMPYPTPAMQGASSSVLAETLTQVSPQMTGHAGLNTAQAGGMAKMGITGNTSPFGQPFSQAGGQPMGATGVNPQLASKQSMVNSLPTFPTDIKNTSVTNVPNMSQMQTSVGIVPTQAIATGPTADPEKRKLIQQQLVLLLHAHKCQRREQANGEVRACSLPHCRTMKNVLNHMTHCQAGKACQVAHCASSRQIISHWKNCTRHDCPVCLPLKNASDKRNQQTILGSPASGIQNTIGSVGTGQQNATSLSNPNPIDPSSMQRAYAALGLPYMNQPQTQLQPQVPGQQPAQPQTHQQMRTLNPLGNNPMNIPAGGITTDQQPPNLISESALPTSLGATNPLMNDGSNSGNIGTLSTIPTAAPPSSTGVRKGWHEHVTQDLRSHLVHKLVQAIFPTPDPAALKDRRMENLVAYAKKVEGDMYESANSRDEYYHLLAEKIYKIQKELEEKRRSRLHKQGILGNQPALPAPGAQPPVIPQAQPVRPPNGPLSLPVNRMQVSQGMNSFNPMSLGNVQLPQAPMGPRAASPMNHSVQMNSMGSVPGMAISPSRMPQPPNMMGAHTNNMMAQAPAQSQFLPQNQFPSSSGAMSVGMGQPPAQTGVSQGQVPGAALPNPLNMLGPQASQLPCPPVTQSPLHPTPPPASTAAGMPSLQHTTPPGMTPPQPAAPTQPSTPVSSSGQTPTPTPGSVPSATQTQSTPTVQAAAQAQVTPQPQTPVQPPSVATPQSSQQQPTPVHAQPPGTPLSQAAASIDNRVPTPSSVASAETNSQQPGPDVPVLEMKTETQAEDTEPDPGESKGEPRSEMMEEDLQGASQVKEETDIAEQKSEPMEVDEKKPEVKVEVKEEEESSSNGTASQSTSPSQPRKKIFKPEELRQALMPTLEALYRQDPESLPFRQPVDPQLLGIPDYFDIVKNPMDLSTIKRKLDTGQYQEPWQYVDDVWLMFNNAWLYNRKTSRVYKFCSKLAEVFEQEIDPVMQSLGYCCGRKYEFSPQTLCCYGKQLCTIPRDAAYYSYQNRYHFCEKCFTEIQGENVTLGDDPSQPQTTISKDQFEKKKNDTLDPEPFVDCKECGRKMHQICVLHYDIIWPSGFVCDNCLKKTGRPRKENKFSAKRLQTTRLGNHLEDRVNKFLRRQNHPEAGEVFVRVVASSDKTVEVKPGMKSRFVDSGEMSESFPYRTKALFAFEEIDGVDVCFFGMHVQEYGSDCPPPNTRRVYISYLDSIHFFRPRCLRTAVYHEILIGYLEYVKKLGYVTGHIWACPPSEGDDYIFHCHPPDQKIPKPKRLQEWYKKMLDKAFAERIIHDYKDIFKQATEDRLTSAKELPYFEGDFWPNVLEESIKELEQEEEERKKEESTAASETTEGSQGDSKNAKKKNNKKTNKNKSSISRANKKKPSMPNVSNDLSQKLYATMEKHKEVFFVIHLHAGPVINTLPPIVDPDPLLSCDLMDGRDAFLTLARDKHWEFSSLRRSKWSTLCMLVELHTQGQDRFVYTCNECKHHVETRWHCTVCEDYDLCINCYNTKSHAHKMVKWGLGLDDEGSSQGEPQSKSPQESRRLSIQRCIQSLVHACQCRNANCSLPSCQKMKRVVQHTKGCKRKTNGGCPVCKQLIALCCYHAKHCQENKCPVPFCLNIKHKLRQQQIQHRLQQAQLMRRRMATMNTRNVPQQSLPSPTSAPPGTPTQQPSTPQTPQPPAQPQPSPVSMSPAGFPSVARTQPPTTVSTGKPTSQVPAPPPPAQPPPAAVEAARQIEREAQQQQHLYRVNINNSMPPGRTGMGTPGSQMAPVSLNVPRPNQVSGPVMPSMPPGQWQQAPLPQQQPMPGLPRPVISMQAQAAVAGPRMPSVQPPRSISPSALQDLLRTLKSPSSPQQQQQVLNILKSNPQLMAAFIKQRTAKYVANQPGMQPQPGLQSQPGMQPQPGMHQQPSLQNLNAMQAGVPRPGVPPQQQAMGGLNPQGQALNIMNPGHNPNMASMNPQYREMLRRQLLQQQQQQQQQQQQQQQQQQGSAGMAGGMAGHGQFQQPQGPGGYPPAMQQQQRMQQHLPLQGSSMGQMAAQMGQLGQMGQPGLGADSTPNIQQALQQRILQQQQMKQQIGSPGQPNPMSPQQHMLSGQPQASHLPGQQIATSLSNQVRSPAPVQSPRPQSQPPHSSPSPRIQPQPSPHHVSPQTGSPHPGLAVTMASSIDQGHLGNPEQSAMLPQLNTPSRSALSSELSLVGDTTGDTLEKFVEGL

As for `CC(C)c1cc(C2=CC(C)(C)Oc3cc(-c4ccc(C(=O)NCC#Cc5ccc6occ(C7CCC(=O)NC7=O)c6c5)nc4)ncc32)cc2c1n(C)c(=O)n2C` (stereo not drawn) [Example A75, N-(3-(3-(2,6-dioxopiperidin-3-yl)benzofuran-5-yl)prop-2-yn-1-yl)-5-(4-(7-isopropyl-1,3-dimethyl-2-oxo-2,3-dihydro-1H-benzo[d]imidazol-5-yl)-2,2-dimethyl-2H-pyrano[3,2-c]pyridin-7-yl)picolinamide], the Dmax is more than 80% on p300 and less than 20% on CBP. The DC50 at p300 was 1 to 9.9 nM; at CBP it was more than 1000 nM.

On to `CC(C)c1cc(-c2cccc3cc(-c4ccc(C(=O)NCC#Cc5ccc6cnn(C7CCC(=O)NC7=O)c6c5F)nc4)ncc23)cc2c1n(C)c(=O)n2C` (stereo not drawn) [Example A1, N-(3-(1-(2,6-Dioxopiperidin-3-yl)-7-fluoro-1H-indazol-6-yl)prop-2-yn-1-yl)-5-(8-(7-isopropyl-1,3-dimethyl-2-oxo-2,3-dihydro-1H-benzo[d]imidazol-5-yl)isoquinolin-3-yl)picolinamide], for which, at p300, the greatest degradation seen (Dmax) was more than 80% and the DC50 was 1 to 9.9 nM. Moreover, at CBP, the DC50 is 10 to 99 nM and the greatest degradation seen (Dmax) fell in the range of 40 to 59%.

As for `CC(C)c1cc(-c2cccc3cc(-c4ccc(C(=O)NCC#Cc5cc(F)c6occ(C7CCC(=O)NC7=O)c6c5)nc4)ncc23)cc2c1n(C)c(=O)n2C` (stereo not drawn) [Example A254, N-(3-(3-(2,6-dioxo-piperidin-3-yl)-7-fluorobenzofuran-5-yl)prop-2-yn-1-yl)-5-(8-(7-isopropyl-1,3-dimethyl-2-oxo-2,3-dihydro-1H-benzo [d]imidazol-5-yl)isoquinolin-3-yl)picolinamide], on p300, the Dmax is more than 80% and the half-maximal degradation concentration (DC50) was 1 to 9.9 nM. At CBP, this compound yielded a DC50 of more than 1000 nM and a Dmax of less than 20%.

Consider `CC(C)c1cc(-c2cccc3cc(-c4ccc(C(=O)NCC#Cc5cc6c(C7CCC(=O)NC7=O)cccc6o5)nc4)ncc23)cc2c1n(C)c(=O)n2C` (stereo not drawn) [Example A197, N-(3-(4-(2,6-dioxo-piperidin-3-yl)benzofuran-2-yl)prop-2-yn-1-yl)-5-(8-(7-isopropyl-1,3-dimethyl-2-oxo-2,3-dihydro-1H-benzo [d]imidazol-5-yl)isoquinolin-3-yl)picolinamide], for which the results for the Dmax on p300 and on CBP were more than 80% and less than 20%, respectively. The 50% degradation concentration (DC50) on p300 is 1 to 9.9 nM; at CBP, more than 1000 nM.

At p300, `CC(C)c1cc(N2CCCc3nc(-c4ccc(C(=O)NCC#Cc5ccc6occ(C7CCC(=O)NC7=O)c6c5)nc4)ncc32)cc2c1n(C)c(=O)n2C` (stereo not drawn) [Example A133, N-(3-(3-(2,6-dioxo-piperidin-3-yl)benzofuran-5-yl)prop-2-yn-1-yl)-5-(5-(7-isopropyl-1,3-dimethyl-2-oxo-2,3-dihydro-1H-benzo [d]imidazol-5-yl)-5,6,7,8-tetrahydro-pyrido[3,2-d]pyrimidin-2-yl)picolinamide] came in with a maximal degradation (Dmax) of more than 80% and a 50% degradation concentration (DC50) of 1 to 9.9 nM. On CBP, this compound yielded a 50% degradation concentration (DC50) of 100 to 999 nM and a maximal degradation (Dmax) of less than 20%.

Consider `Cc1cc2c(N3CCCc4nc(-c5ccc(C(=O)NCC#Cc6cc7c(C8CCC(=O)NC8=O)cccc7o6)nc5)ncc43)nc(N3CCC(C)(O)CC3)cc2n(C)c1=O` (stereo not drawn) [Example B162, N-(3-(4-(2,6-dioxopiperidin-3-yl)benzofuran-2-yl)prop-2-yn-1-yl)-5-(5-(7-(4-hydroxy-4-methylpiperidin-1-yl)-1,3-dimethyl-2-oxo-1,2-dihydro-1,6-naphthyridin-5-yl)-5,6,7,8-tetrahydropyrido[3,2-d]pyrimidin-2-yl) picolinamide], for which, on p300, the Dmax was more than 80% and the DC50 was in the range of 1 to 9.9 nM. At CBP, this compound gave a 50% degradation concentration (DC50) of more than 1000 nM and a Dmax of less than 20%.
